Patent publication US9598396B2, “Tetrahydrophenanthridinones and tetrahydrocyclopentaquinolinones as PARP and tubulin polymerization inhibitors” (Janssen Pharmaceutica NV, priority 2008, dated 2017)

Assays:
[1] = tested on: Human colon carcinoma HCT116 cells; assay: Detection of antiproliferative activity (Alamar Blue assay); assay type: cell-based; settings: HCT-116, 96 h, 4-day incubation, read-out: Cellular assay HCT116 pIC50 (converted)
Protocol: Example C.4 Detection of Antiproliferative Activity
Human colon carcinoma HCT116 cells obtained from the ATCC were cultured in McCoy's 5A medium supplemented with 2 mM L-Glutamine, 50 μg/ml gentamicin and 10% heat inactivated fetal calf serum.
Reagents used in the Alamar Blue Assay
Resazurin was purchased from Aldrich (Prod. No. 199303). Potassium ferrocyanide, potassium ferricyanide, KH2PO4 and K2HPO4 were purchased from Sigma (Prod. Nos. P9387, P8131, P5655 and P8281, respectively).
Potassium Phosphate Buffer 0.1 M (PPB) was made as follows: 2.72 gram KH2PO4 and 13.86 gram K2HPO4 were dissolved in 500 ml milli-Q H2O, the pH was adjusted to pH 7.4 and the volume was brought to 1 liter with milli-Q H2O; the buffer was filter sterilised and stored at room temperature. Resazurin stock solution (PPB-A) was prepared fresh by dissolving 45 mg resazurin in 15 ml PBS. 30 mM potassium ferricyanide (PPB-B) was prepared by dissolving 0.987 gram potassium ferricyanide in 100 ml PPB. 30 mM potassium ferrocyanide (PPB-C) was prepared by dissolving 1.266 gram potassium ferrocyanide in 100 ml PPB.
Mixture of PPB-A, PPB-B and PPB-C was prepared by mixing equal volumes of the respective solutions. Resazurin work solution (herein termed “Alamar Blue” solution) was prepared by diluting said mixture 20× (vol/vol) in PPB and filter sterilising; the Alamar Blue solution could be kept at 4° C. for a maximum of 2 weeks.
Procedure of the Alamar Blue Assay
For experiments in 384 wells plates the cells were seeded at a density of 4.5×10^3 cells/ml in Falcon 384-well culture plates (Life Technologies, Merelbeke, Belgium), black with clear bottom, in 45 μl culture medium. Cells were allowed to adhere to plastic for 24 hours. The tested compound was pre-diluted (1/50 in culture medium) and 5 μl pre-diluted compound was added to the wells. Following 4-day incubation, 10 μl of the Alamar Blue solution was added to each well and the cells were further incubated for 4 hours (HCT116) or 24 hours (PC-3) at 37° C. The fluorescence intensity was measured for each well on a Fluorescence plate reader (Fluorskan, Labsystems, 540 nm excitation and 590 nm emission)
The antiproliferative activity was calculated as percentage of remaining viable cells in treated versus control (untreated cells) conditions. Within an experiment, the result for each experimental condition is the mean of 3 replicate wells. When appropriate, the experiments were repeated to establish full concentration-response curves. […] Herein the effects of tested compounds are expressed as pIC50 (the negative log value of the IC50 value) (see Table 3).

[2] = tested on: human prostate cancer PC3 cells; assay: Eb1 Comet (microtubule disruption) assay; assay type: cell-based; settings: 1 hour treatment, LAC = concentration where Eb1 foci absent in at least 50% of treated cells
From the text: Example C.6 Eb1 Comet (Microtubule Disruption) Assay
The Eb1 Comet assay relies on the detection of the Eb1 protein at the plus end of polymerizing microtubules (Mimori-Kiyosue, 2000) using indirect immunofluorescence. Disruption of microtubule dynamics through de-polymerization or stabilization results in a de-localization of Eb1 from the growing microtubule ends and this is visualized by the disappearance of Eb1 containing cytoplasmic foci.
Briefly, human prostate cancer PC3 cells obtained from the American Type Culture Collection were grown in 96-well plates (Greiner, cat. no. 655090) in HAM's F12 medium as recommended by the provider (ATCC). The cells were treated for 1 hour at 37° C. with compounds dissolved in DMSO (0.6% final DMSO concentration). The culture medium was then removed by aspiration and the cells were fixed by adding cold methanol (−20 C). After a 15 minutes incubation at −20° C., the cells were washed twice with DPBS (Gibco) containing 0.5% Triton X-100. Mouse Eb1 antibody (BD Transduction Laboratories, cat. no. 610534) was added to the cells (1/250 dilution in DPBS containing 1% BSA) and incubated overnight at room temperature. The antibody was subsequently removed and the cells washed twice with DPBS, 0.5% Triton X-100. Secondary goat anti-mouse antibody conjugated to Alexa 488 fluorescent dye (Molecular Probes) was added at a 1/500 dilution in DPBS, 1% BSA and incubated for 1 hour at 37° C. The cells were washed twice with DPBS, 0.5% Triton X-100 and then DPBS containing 0.5% Triton X-100 and 1/5000 Hoechst 33342 (Molecular Probes) was added. Microscopy based Eb1 foci visualization was carried out using an IN Cell Analyser 1000 (Amersham Biosciences) using a 20× objective. Compound dependent microtubule disruption was visually determined by the disappearance in Eb1 foci. The lowest active concentration (LAC) was determined as the concentration where Eb1 foci were absent in at least 50% of the treated cells. Herein the effects of tested compounds are expressed as pLAC (the negative log value of the LAC value) (see Table 3).

TANK-2 enzyme = TANK-2 enzyme (Homo sapiens (Human), UniProt Q9H2K2); assay: In vitro Scintillation Proximity Assay (SPA) for TANK-2 inhibitory activity; assay type: biochemical; settings: auto-poly(ADP-ribosyl)ation, [3H]-NAD+, Ni flash plates (96 or 384 well)
Sequence of TANK-2 enzyme (Q9H2K2 whole entry): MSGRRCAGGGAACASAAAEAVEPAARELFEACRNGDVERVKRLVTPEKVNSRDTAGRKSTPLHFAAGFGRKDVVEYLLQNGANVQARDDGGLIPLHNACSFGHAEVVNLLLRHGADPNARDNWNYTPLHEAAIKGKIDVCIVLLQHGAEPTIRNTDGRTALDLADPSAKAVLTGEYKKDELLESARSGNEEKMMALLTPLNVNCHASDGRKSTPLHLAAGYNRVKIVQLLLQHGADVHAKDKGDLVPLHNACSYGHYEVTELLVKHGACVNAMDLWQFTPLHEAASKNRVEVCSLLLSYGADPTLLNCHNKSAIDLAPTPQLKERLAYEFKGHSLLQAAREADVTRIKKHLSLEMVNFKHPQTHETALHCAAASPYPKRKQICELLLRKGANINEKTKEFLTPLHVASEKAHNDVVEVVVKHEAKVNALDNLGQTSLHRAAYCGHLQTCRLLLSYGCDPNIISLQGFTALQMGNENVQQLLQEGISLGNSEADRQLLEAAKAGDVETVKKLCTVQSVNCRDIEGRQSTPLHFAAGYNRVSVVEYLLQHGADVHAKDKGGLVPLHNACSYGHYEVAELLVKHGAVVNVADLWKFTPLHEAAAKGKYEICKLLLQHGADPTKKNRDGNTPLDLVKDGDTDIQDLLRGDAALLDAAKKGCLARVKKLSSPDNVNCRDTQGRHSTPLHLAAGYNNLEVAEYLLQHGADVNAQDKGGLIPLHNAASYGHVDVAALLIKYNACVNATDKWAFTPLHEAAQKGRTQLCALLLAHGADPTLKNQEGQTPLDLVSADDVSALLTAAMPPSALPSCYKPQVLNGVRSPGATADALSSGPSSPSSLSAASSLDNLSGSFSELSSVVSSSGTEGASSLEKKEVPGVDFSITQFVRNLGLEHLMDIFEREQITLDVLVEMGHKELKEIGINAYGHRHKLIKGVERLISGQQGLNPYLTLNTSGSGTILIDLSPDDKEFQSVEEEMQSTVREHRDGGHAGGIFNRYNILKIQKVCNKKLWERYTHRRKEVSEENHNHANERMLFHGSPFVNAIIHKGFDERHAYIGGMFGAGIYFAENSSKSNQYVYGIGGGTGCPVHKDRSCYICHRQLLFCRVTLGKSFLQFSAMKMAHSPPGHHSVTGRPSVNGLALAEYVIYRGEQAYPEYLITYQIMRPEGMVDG
Protocol: C.2.In Vitro Scintillation Proximity Assay (SPA) for TANK-2 Inhibitory Activity
Compounds of the present invention were tested in an in vitro assay based on SPA technology with Ni Flash plates (96 or 384 well).
In principle, the assay relies upon SPA technology for the detection of auto-poly(ADP-ribosyl)ation of TANK-2 protein using [^3H]-nicotinamide adenine dinucleotide ([^3H]-NAD^+) as ADP-ribosyl donor.
A stock solution of 100 nM [^3H]-NAD^+/NAD (0.1 mCi/ml, supplier: Perkin Elmer) and 25 μM NAD (Sigma) was made in assay buffer (60 mM Tris/HCl, pH 7.4; 0.9 mM DTT; 6 mM MgCl2). The TANK-2 enzyme was produced as described in EP1238063. 60 μl of assay buffer, together with 1 μl of compound in DMSO, 20 μl of [^3H]-NAD^+/NAD and 20 μl of TANK-2 enzyme (final concentration 8 μg/ml) was added per well into a 96-well Ni-coated flash plate (Perkin Elmer). After incubation of the mixture for 120 minutes at room temperature, the reaction was terminated by adding 60 μl of stopsolution (42.6 mg NAD in 6 ml H2O). The plates were covered with a plate sealer and placed in a TopCountNXT™ (Packard) for scintillation counting. Values were expressed as counts per minute (cpm). For each experiment, controls (containing TANK-2 enzyme and DMSO without compound), a blank incubation (containing DMSO but no TANK-2 enzyme or compound) and samples (containing TANK-2 enzyme and compound dissolved in DMSO) were run in parallel. All compounds tested were dissolved and eventually further diluted in DMSO. In first instance, compounds were tested at a concentration of 10^−5M. […] In each test, the blank value was subtracted from both the control and the sample values. The control sample represented maximal TANK-2 enzyme activity. For each sample, the amount of cpm was expressed as a percentage of the mean cpm value of the controls. […] Herein the effects of test compounds are expressed as pIC50 (the negative log value of the IC50-value). As reference compounds, 3-aminobenzamide and 4-amino-1,8-naphtalimide were included to validate the SPA assay. Herein the assay was described using 96-well plates. In the assay using 384-well plates the same final concentrations were used and volumes were adapted.

tubulin = assay: Tubulin polymerization assay; assay type: biochemical; settings: inhibition of polymerization at 20 μM and 5 μM
Protocol: Example C.5 Polymerization Assay
The tubulin polymerization assay is an adaptation of an assay originally described by Bonne, D. et al. (J. Biol. Chem., 1985, 260:2819-25). The assay kit was purchased from Cytoskeleton, Inc. (catalogue number BK011) and the assay was performed as described by the supplier with the following modifications. The assay was run in a 384-well black Proxiplate (Perkin Elmer) and volumes were adapted accordingly. The reactions were carried out in a final volume of 10 μl. Compounds were added to 25 μl of the reaction mix in 96-well PP plates (Corning) on ice and 10 μl of this mixture was dispensed into duplicates of the 384-well Proxiplates pre-warmed to 37° C. in a Fluoroskan Ascent plate reader (Thermo Scientific). Fluorescence measurements were taken every minute for one hour. The maximum slope of each well was determined (linear regression through 4 consecutive points) and polymerization was calculated as a percentage of polymerization observed in the absence of compound.

Question: With `COc1cc(OC)nc(CC(C)(C#N)c2ccc3c4c(c(=O)[nH]c3c2)CCCC4)n1` (stereo not shown) [Co. No. 6] as the compound, how does the IC50 [1] read?
Answer: 0.0575 µM

Question: What about the “Cellular assay Eb1 pLAC” value [2] of the same compound?
Answer: 8

Question: What about the “in vitro SPA assay TANK-2 pIC50” value (TANK-2 enzyme) of the same compound?
Answer: 7.72

Question: And the “Assay Tubulin Polymerization score” value (tubulin)?
Answer: 3 (a compound showing more than 50% inhibition at 5 μM is reported as score 3)
